Data as given in PubChem BioAssay (NCI).
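Cultured in 96-well plates, cells were exposed to test compound for 48 hours across five concentrations. GI50 marks 50% less growth. Definition used: TGI = concentration required for complete inhibition of growth.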

What was measured:
Experiment in all cases: NCI-60 cell line screen, 48 h
[1] = tested on: TK-10 renal
[2] = tested on: SK-OV-3 ovarian
[3] = tested on: MDA-MB-435
[4] = tested on: PC-3 prostate
[5] = tested on: UACC-257 melanoma
[6] = tested on: OVCAR-5 ovarian
[7] = tested on: SR leukemia
[8] = tested on: RPMI-8226 leukemia
[9] = tested on: SK-MEL-28 melanoma
[10] = tested on: SNB-75 CNS
[11] = tested on: DU-145 prostate
[12] = tested on: ACHN renal
[13] = tested on: MDA-MB-231 breast
[14] = tested on: SF-539 CNS
[15] = tested on: SK-MEL-2 melanoma
[16] = tested on: M14 melanoma
[17] = tested on: A498 renal
[18] = tested on: OVCAR-3 ovarian
[19] = tested on: NCI-H226 lung
[20] = tested on: HOP-92 NSCLC
[21] = tested on: COLO 205 colon
[22] = tested on: U251 CNS
[23] = tested on: SW-620 colon
[24] = tested on: HS 578T breast
[25] = tested on: SNB-19 CNS
[26] = tested on: SK-MEL-5 melanoma
[27] = tested on: NCI/ADR-RES ovarian
[28] = tested on: CCRF-CEM leukemia
[29] = tested on: BT-549 breast
[30] = tested on: A549 NSCLC
[31] = tested on: MCF7 breast
[32] = tested on: SF-295 CNS
[33] = tested on: KM12 colon
[34] = tested on: NCI-H460 lung
[35] = tested on: K-562 leukemia
[36] = tested on: HOP-62 NSCLC
[37] = tested on: IGROV1 ovarian
[38] = tested on: OVCAR-4 ovarian
[39] = tested on: MALME-3M melanoma
[40] = tested on: 786-0 renal
[41] = tested on: SN12C renal
[42] = tested on: HT29 colon
[43] = tested on: NCI-H522 lung
[44] = tested on: RXF 393 renal
[45] = tested on: LOX IMVI melanoma
[46] = tested on: HCT-15 colon
[47] = tested on: MOLT-4 leukemia
[48] = tested on: UO-31 renal
[49] = tested on: HCT-116 colon
[50] = tested on: T-47D breast
[51] = tested on: OVCAR-8 ovarian
[52] = tested on: CAKI-1 renal
[53] = tested on: HCC-2998 colon
[54] = tested on: UACC-62 melanoma
[55] = tested on: NCI-H23 lung
[56] = tested on: EKVX NSCLC
[57] = tested on: SF-268 CNS

SMILES: CCCCCCCCCCCCCC1=NCC[N+]1(CCO)Cc1ccccc1 (centres undefined)
- GI50 [1]: 1.71 µM
- TGI [1]: 3.28 µM
- GI50 [2]: 1.86 µM
- TGI [2]: 3.8 µM
- GI50 [3]: 1.69 µM
- TGI [3]: 3.18 µM
- GI50 [4]: 1.64 µM
- TGI [4]: 3.23 µM
- GI50 [5]: 2 µM
- TGI [5]: 3.72 µM
- GI50 [6]: 1.57 µM
- TGI [6]: 3.07 µM
- GI50 [7]: 1.51 µM
- TGI [7]: 4.2 µM
- GI50 [8]: 1.85 µM
- TGI [8]: 4.8 µM
- GI50 [9]: 1.7 µM
- TGI [9]: 3.22 µM
- GI50 [10]: 1.45 µM
- TGI [10]: 2.81 µM
- GI50 [11]: 1.77 µM
- TGI [11]: 3.23 µM
- GI50 [12]: 1.63 µM
- TGI [12]: 3.1 µM
- GI50 [13]: 1.54 µM
- TGI [13]: 3.14 µM
- GI50 [14]: 1.68 µM
- TGI [14]: 3.16 µM

SMILES: O=C1c2ccccc2S(=O)(=O)N1CSC(=S)N1CCCC1
- GI50 [15]: > 100 µM
- TGI [15]: > 100 µM
- GI50 [16]: > 100 µM
- TGI [16]: > 100 µM
- GI50 [1]: > 100 µM
- TGI [1]: > 100 µM
- GI50 [17]: > 100 µM
- TGI [17]: > 100 µM
- GI50 [18]: > 25.6 µM
- TGI [18]: > 100 µM
- GI50 [19]: > 100 µM
- TGI [19]: > 100 µM
- GI50 [20]: > 100 µM
- TGI [20]: > 100 µM
- GI50 [21]: > 100 µM
- TGI [21]: > 100 µM
- GI50 [2]: > 100 µM
- TGI [2]: > 100 µM
- GI50 [3]: 99.7 µM
- TGI [3]: > 100 µM
- GI50 [4]: 7.62 µM
- TGI [4]: > 100 µM
- GI50 [22]: > 100 µM
- TGI [22]: > 100 µM
- GI50 [23]: > 100 µM
- TGI [23]: > 100 µM
- GI50 [24]: > 100 µM
- TGI [24]: > 100 µM
- GI50 [25]: > 100 µM
- TGI [25]: > 100 µM
- GI50 [26]: > 27.6 µM
- TGI [26]: > 100 µM
- GI50 [5]: > 100 µM
- TGI [5]: > 100 µM
- GI50 [6]: > 100 µM
- TGI [6]: > 100 µM
- GI50 [27]: > 100 µM
- TGI [27]: > 100 µM
- GI50 [28]: 5.78 µM
- TGI [28]: > 100 µM
- GI50 [29]: > 100 µM
- TGI [29]: > 100 µM
- GI50 [30]: > 88.5 µM
- TGI [30]: > 100 µM
- GI50 [31]: > 22.9 µM
- TGI [31]: > 100 µM
- GI50 [32]: > 100 µM
- TGI [32]: > 100 µM
- GI50 [33]: > 100 µM
- TGI [33]: > 100 µM
- GI50 [34]: 45.4 µM
- TGI [34]: > 100 µM
- TGI [8]: > 36 µM
- GI50 [35]: 4.02 µM
- TGI [35]: > 100 µM
- GI50 [36]: > 100 µM
- TGI [36]: > 100 µM
- GI50 [37]: 19 µM
- TGI [37]: > 100 µM
- GI50 [38]: > 51.7 µM
- TGI [38]: > 100 µM
- GI50 [39]: > 100 µM
- TGI [39]: > 100 µM
- GI50 [40]: > 100 µM
- TGI [40]: > 100 µM
- GI50 [41]: > 100 µM
- TGI [41]: > 100 µM
- GI50 [9]: > 100 µM
- TGI [9]: > 100 µM
- GI50 [42]: > 100 µM
- TGI [42]: > 100 µM
- GI50 [10]: > 48 µM
- TGI [10]: > 100 µM
- GI50 [43]: 12.1 µM
- TGI [43]: > 100 µM
- GI50 [44]: > 100 µM
- TGI [44]: > 100 µM
- GI50 [45]: > 100 µM
- TGI [45]: > 100 µM
- GI50 [46]: > 100 µM
- TGI [46]: > 100 µM
- GI50 [47]: 8.3 µM
- TGI [47]: > 100 µM
- GI50 [11]: > 100 µM
- TGI [11]: > 100 µM
- GI50 [12]: > 100 µM
- TGI [12]: > 100 µM
- GI50 [48]: > 100 µM
- TGI [48]: > 100 µM
- GI50 [49]: 63.8 µM
- TGI [49]: > 100 µM
- GI50 [13]: > 100 µM
- TGI [13]: > 100 µM
- GI50 [50]: > 72.4 µM
- TGI [50]: > 100 µM
- GI50 [51]: > 100 µM
- TGI [51]: > 100 µM
- GI50 [14]: > 100 µM
- TGI [14]: > 100 µM
- GI50 [52]: > 100 µM
- TGI [52]: > 100 µM
- GI50 [53]: > 53.4 µM
- TGI [53]: > 100 µM
- GI50 [54]: > 75.7 µM
- TGI [54]: > 100 µM
- GI50 [55]: > 78.6 µM
- TGI [55]: > 100 µM
- GI50 [56]: > 100 µM
- TGI [56]: > 100 µM
- GI50 [57]: > 100 µM
- TGI [57]: > 100 µM
